According to US8841456B2, “1,5-naphthyridine derivative or salt thereof” (FUJIFILM Corporation, priority 2011, dated 2014):
pIC50: −log10 of the molar value.

Tests used:
human PI3Kα protein = target: T1, human PI3Kα protein (Homo sapiens, UniProt P42336); test: PI3Kα enzyme assay (ADP-Glo kinase assay); assay type: biochemical; conditions: IC50 class; 3 nM PI3Kα, 50 μM PIP2, 100 μM ATP; read-out: PI3Kα Inhibitory Activity
T1 construct: purchased Carna Biosciences, Inc; host or cells: Baculovirus expression system
Procedure, shortened: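 Baculovirus-expressed biotinylated human PI3Kα (3 nM) preincubated 15 min with compound in Tris pH 7.5, MgCl2, BSA, then reacted 60 min at 25 °C with 50 μM PIP2 and 100 μM ATP. ADP quantified by ADP-Glo luminescence; IC50 calculated.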

[1] = target: T2, glutathione S-transferase (GST)-fusion human ERK2 protein (Homo sapiens, UniProt P28482); test: ERK2 enzyme assay (LabChip mobility shift); assay type: biochemical; conditions: IC50 class; 2 nM ERK2, 4.25 μM FL-Peptide 8, 43 μM ATP; read-out: ERK2 Inhibitory Activity
T2 construct: purchased Carna Biosciences, Inc; host or cells: E. coli expression system
Procedure, shortened: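 GST-tagged human ERK2 from E. coli, at 2 nM, was preincubated 15 min at room temperature with compound in Hepes pH 7.5 with MgCl2, DTT and Brij35. The reaction ran 120 min at 25 °C with 4.25 μM FL-Peptide 8 and 43 μM ATP (final). Phosphopeptide fraction was measured by mobility-shift separation to give IC50.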

T2 sequence (P28482 whole entry, the tested form may be a part): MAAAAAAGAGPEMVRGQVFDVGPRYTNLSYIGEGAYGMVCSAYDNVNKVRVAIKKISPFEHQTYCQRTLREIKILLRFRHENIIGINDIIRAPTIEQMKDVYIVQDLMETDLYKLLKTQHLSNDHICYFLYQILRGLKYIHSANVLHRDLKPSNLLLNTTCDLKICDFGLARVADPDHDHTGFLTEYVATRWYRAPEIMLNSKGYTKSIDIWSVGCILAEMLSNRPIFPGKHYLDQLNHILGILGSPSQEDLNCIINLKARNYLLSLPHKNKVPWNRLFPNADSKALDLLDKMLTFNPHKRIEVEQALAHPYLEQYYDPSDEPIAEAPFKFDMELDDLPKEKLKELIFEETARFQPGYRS
T1 sequence (P42336 whole entry): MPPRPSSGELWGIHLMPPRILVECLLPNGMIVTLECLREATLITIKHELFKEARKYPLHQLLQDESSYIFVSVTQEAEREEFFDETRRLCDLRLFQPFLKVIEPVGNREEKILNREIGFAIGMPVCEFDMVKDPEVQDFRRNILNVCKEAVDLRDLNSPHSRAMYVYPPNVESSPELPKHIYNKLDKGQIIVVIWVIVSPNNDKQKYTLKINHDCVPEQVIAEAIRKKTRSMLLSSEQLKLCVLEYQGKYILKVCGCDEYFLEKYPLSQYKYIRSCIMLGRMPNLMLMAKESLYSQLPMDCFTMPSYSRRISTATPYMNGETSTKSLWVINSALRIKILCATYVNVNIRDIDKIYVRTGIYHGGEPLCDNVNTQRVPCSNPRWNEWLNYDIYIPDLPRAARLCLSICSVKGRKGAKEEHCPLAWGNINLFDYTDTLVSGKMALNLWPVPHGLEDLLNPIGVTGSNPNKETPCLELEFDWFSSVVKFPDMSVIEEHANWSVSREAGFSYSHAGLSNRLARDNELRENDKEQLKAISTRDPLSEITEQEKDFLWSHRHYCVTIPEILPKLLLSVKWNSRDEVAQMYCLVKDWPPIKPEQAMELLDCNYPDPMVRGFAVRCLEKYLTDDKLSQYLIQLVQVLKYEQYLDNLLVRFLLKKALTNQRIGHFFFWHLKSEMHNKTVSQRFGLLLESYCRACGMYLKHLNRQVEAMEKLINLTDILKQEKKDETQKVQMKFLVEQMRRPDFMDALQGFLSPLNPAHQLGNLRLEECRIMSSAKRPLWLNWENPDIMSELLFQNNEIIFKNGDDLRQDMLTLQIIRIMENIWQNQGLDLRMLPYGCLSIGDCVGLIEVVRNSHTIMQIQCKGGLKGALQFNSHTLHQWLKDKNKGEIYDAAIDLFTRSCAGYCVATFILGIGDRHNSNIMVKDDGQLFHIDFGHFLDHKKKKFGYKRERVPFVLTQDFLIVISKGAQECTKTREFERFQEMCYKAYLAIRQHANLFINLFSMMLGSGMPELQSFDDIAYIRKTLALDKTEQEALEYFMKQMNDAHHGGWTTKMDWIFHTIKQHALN
T1 sequence (P27986 whole entry partner): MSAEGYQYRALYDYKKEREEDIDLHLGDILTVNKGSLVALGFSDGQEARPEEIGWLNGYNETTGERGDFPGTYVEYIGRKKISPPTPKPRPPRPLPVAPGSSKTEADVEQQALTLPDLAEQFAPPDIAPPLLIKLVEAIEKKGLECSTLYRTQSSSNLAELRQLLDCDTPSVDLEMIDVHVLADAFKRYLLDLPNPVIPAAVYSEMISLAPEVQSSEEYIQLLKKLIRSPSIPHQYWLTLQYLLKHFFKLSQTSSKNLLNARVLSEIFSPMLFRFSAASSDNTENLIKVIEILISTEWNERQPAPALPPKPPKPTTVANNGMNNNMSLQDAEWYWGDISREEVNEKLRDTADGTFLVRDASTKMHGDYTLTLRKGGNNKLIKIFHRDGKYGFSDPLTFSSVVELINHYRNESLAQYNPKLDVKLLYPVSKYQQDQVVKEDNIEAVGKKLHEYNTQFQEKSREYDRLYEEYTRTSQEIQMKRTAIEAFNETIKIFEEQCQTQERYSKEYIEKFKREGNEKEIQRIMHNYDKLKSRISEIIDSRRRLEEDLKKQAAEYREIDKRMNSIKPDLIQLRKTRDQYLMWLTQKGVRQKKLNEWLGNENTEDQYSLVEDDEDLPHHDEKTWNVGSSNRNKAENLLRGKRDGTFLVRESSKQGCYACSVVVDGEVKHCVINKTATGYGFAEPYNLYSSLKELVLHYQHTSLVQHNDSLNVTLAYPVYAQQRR

Row | Structure (SMILES) | pIC50 (human PI3Kα protein) | pIC50 [1]
1 | C[C@@H](C[C@H](C)Oc1ccccc1)NC(=O)Nc1ccc2ncc(-c3cn[nH]c3)cc2n1 [Compound 0163] | 6.00 to 7.00 | 6.00 to 7.00
2 | CC(C)(C)NC(=O)Nc1ccc2ncc(-c3cnn(CCCN4CCNCC4)c3)cc2n1 [Compound 0164] | > 7.00 | > 7.00
3 | O=C(NCCCCc1ccccc1Cl)Nc1ccc2ncc(-c3cn[nH]c3)cc2n1 [Compound 0165] | 6.00 to 7.00 | > 7.00
4 | O=C(NCCCCc1cccc(Cl)c1)Nc1ccc2ncc(-c3cn[nH]c3)cc2n1 [Compound 0166] | 6.00 to 7.00 | > 7.00
5 | O=C(NCCCCc1ccc(Cl)cc1)Nc1ccc2ncc(-c3cn[nH]c3)cc2n1 [Compound 0167] | 6.00 to 7.00 | > 7.00
6 | C[C@H](C[C@H](C)Oc1ccccc1)NC(=O)Nc1ccc2ncc(-c3cn[nH]c3)cc2n1 [Compound 0170] | 6.00 to 7.00 | > 7.00
7 | O=C(NCCCCc1ccccc1F)Nc1ccc2ncc(-c3cn[nH]c3)cc2n1 [Compound 0171] | > 7.00 | > 7.00
8 | O=C(Nc1ccc2ncc(-c3cnn(CCCN4CCOCC4)c3)cc2n1)N[C@@H]1CCN(Cc2ccccc2)C1 [Compound 0175] | 6.00 to 7.00 | > 7.00
9 | O=C(Nc1ccc2ncc(-c3cnn(CCCN4CCOCC4)c3)cc2n1)N[C@H]1CCN(Cc2ccccc2)C1 [Compound 0176] | 6.00 to 7.00 | 6.00 to 7.00
10 | CC(CCc1ccccc1)NC(=O)Nc1ccc2ncc(-c3cnn(CCCN4CCOCC4)c3)cc2n1 (stereo not drawn) [Compound 0179] | > 7.00 | > 7.00
11 | O=C(NCC1CCC(F)(F)CC1)Nc1ccc2ncc(-c3cnn(CCCN4CCOCC4)c3)cc2n1 [Compound 0180] | > 7.00 | > 7.00
12 | C[C@@H](NC(=O)Nc1ccc2ncc(-c3cnn(CCCN4CCOCC4)c3)cc2n1)C1CCCCC1 [Compound 0181] | > 7.00 | > 7.00
13 | O=C(NCC1CCC1)Nc1ccc2ncc(-c3cn[nH]c3)cc2n1 [Compound 0188] | > 7.00 | > 7.00
14 | O=C(NCC1CCCCO1)Nc1ccc2ncc(-c3cn[nH]c3)cc2n1 (stereo not drawn) [Compound 0189] | 6.00 to 7.00 | > 7.00
15 | O=C(NCC1CCCOC1)Nc1ccc2ncc(-c3cn[nH]c3)cc2n1 (stereo not drawn) [Compound 0190] | 6.00 to 7.00 | > 7.00
16 | O=C(NCC1CCOCC1)Nc1ccc2ncc(-c3cn[nH]c3)cc2n1 [Compound 0191] | 6.00 to 7.00 | > 7.00
17 | O=C(NC[C@H]1CCCO1)Nc1ccc2ncc(-c3cn[nH]c3)cc2n1 [Compound 0192] | 6.00 to 7.00 | > 7.00
18 | O=C(NC[C@@H]1CCCO1)Nc1ccc2ncc(-c3cn[nH]c3)cc2n1 [Compound 0193] | 6.00 to 7.00 | > 7.00
19 | CO[C@H]1CCC[C@@H]1NC(=O)Nc1ccc2ncc(-c3cn[nH]c3)cc2n1 [Compound 0194] | 6.00 to 7.00 | > 7.00
20 | CC1(NC(=O)Nc2ccc3ncc(-c4cn[nH]c4)cc3n2)CCC1 [Compound 0195] | > 7.00 | 6.00 to 7.00
21 | O=C(NCC1CCOC1)Nc1ccc2ncc(-c3cn[nH]c3)cc2n1 (stereo not drawn) [Compound 0197] | 6.00 to 7.00 | > 7.00

Row | Structure (SMILES) | pIC50 (human PI3Kα protein) | pIC50 [1]
22 | C[C@@H](NC(=O)Nc1ccc2ncc(-c3cn[nH]c3)cc2n1)C1CCCC1 [Compound 0198] | 6.00 to 7.00 | > 7.00
23 | C[C@H](NC(=O)Nc1ccc2ncc(-c3cn[nH]c3)cc2n1)C1CCCC1 [Compound 0199] | 6.00 to 7.00 | > 7.00
24 | O=C(Nc1ccc2ncc(-c3cn[nH]c3)cc2n1)N[C@@H]1CC[C@H](CF)C1 [Compound 0200] | > 7.00 | > 7.00
25 | O=C(NCCCN1CCOCC1)Nc1ccc2ncc(-c3cn[nH]c3)cc2n1 [Compound 0201] | 5.00 to 6.00 | 6.00 to 7.00
26 | O=C(NCCCN1CCCCC1)Nc1ccc2ncc(-c3cn[nH]c3)cc2n1 [Compound 0202] | 5.00 to 6.00 | 6.00 to 7.00
27 | O=C(NCCCCc1ccccc1)Nc1ccc2ncc(-c3cnn(CCCN4CCOCC4)c3)cc2n1 [Compound 0203] | > 7.00 | > 7.00
28 | O=C(Nc1ccc2ncc(-c3cnn(CCCCN4C(=O)c5ccccc5C4=O)c3)cc2n1)NC1CCCC1 [Compound 0206] | > 7.00 | 6.00 to 7.00
29 | O=C(Nc1ccc2ncc(-c3cnn(CCN4CCOCC4)c3)cc2n1)NS(=O)(=O)c1ccccc1 [Compound 0208] | < 5.00 | < 5.00
30 | CN(C)CCCn1cc(-c2cnc3ccc(NC(=O)NC4CCCC4)nc3c2)cn1 [Compound 0210] | > 7.00 | 6.00 to 7.00
31 | CC(C)(C)OC(=O)N1CCN(CCCn2cc(-c3cnc4ccc(NC(=O)NC5CCCC5)nc4c3)cn2)CC1 [Compound 0211] | > 7.00 | > 7.00
32 | O=C(Nc1ccc2ncc(-c3cnn(CCCN4CCNCC4)c3)cc2n1)NC1CCCC1 [Compound 0212] | > 7.00 | > 7.00
33 | CN(C)CCn1cc(-c2cnc3ccc(NC(=S)N[C@@H]4C[C@H]5CC[C@@H]4C5)nc3c2)cn1 [Compound 0213] | 6.00 to 7.00 | > 7.00
34 | CCOC(=O)c1nn(C)cc1-c1cnc2ccc(NC(=O)NC3CCCC3)nc2c1 [Compound 0215] | > 7.00 | 6.00 to 7.00
35 | CN(C)Cc1nn(C)cc1-c1cnc2ccc(NC(=O)NC3CCCC3)nc2c1 [Compound 0217] | > 7.00 | 6.00 to 7.00
36 | O=C(Nc1ccc2ncc(-c3c[nH]nc3CO)cc2n1)NC1CCCC1 [Compound 0219] | > 7.00 | > 7.00
37 | S=C(Nc1ccc2ncc(-c3cnn(CCCN4CCNCC4)c3)cc2n1)NC1CCCC1 [Compound 0220] | > 7.00 | > 7.00
38 | CN(C)CCCn1cc(-c2cnc3ccc(NC(=S)NC4CCCC4)nc3c2)cn1 [Compound 0221] | > 7.00 | > 7.00
39 | CN1CCN(CCn2cc(-c3cnc4ccc(NC(=O)NC5CCCC5)nc4c3)cn2)CC1 [Compound 0223] | > 7.00 | > 7.00
40 | O=C(Nc1ccc2ncc(Oc3cnccn3)cc2n1)NC1CCCC1 [Compound 0224] | 6.00 to 7.00 | 5.00 to 6.00
41 | Cn1cc(-c2cc3nc(NC(=O)NC4CCCC4)ccc3nc2Cl)cn1 [Compound 0225] | < 5.00 | < 5.00

More lines, now with the values ahead:

Row | pIC50 (human PI3Kα protein) | pIC50 [1] | Structure (SMILES)
42 | > 7.00 | > 7.00 | COc1ccccc1CCCCNC(=O)Nc1ccc2ncc(-c3cn[nH]c3)cc2n1 [Compound 0168]
43 | 6.00 to 7.00 | > 7.00 | COc1cccc(CCCCNC(=O)Nc2ccc3ncc(-c4cn[nH]c4)cc3n2)c1 [Compound 0169]
44 | 6.00 to 7.00 | > 7.00 | O=C(NCCCCc1ccc(F)cc1)Nc1ccc2ncc(-c3cn[nH]c3)cc2n1 [Compound 0172]
45 | 6.00 to 7.00 | > 7.00 | COc1ccc(CCCCNC(=O)Nc2ccc3ncc(-c4cn[nH]c4)cc3n2)cc1 [Compound 0173]
46 | > 7.00 | > 7.00 | O=C(NCCCCC1OCCO1)Nc1ccc2ncc(-c3cn[nH]c3)cc2n1 [Compound 0174]
47 | < 5.00 | 6.00 to 7.00 | O=C(NCCCCN1CCCC1)Nc1ccc2ncc(-c3cn[nH]c3)cc2n1 [Compound 0177]
48 | 6.00 to 7.00 | 6.00 to 7.00 | O=C(NCCCCC1CCCCC1)Nc1ccc2ncc(-c3cnn(CCCN4CCOCC4)c3)cc2n1 [Compound 0178]
49 | > 7.00 | > 7.00 | O=C(NCCCCc1ccccc1F)Nc1ccc2ncc(-c3cnn(CCCN4CCOCC4)c3)cc2n1 [Compound 0183]
50 | > 7.00 | > 7.00 | CCCC(C)(C)NC(=O)Nc1ccc2ncc(-c3cn[nH]c3)cc2n1 [Compound 0184]
51 | 5.00 to 6.00 | 6.00 to 7.00 | CC(C)(C)NC(=O)Nc1ccc2ncc(-c3cnn(CCCN4CCOCC4)c3)cc2n1 [Compound 0185]
52 | 6.00 to 7.00 | > 7.00 | O=C(NCC1CC1)Nc1ccc2ncc(-c3cn[nH]c3)cc2n1 [Compound 0186]
53 | 5.00 to 6.00 | > 7.00 | O=C(NCC12CC3CC(CC(C3)C1)C2)Nc1ccc2ncc(-c3cn[nH]c3)cc2n1 [Compound 0187]
54 | 6.00 to 7.00 | 6.00 to 7.00 | COCC1(NC(=O)Nc2ccc3ncc(-c4cn[nH]c4)cc3n2)CCC1 [Compound 0196]
55 | 6.00 to 7.00 | 6.00 to 7.00 | O=C(Nc1ccc2ncc(-c3cn[nH]c3)cc2n1)NN1CCCC1 [Compound 0204]
56 | > 7.00 | > 7.00 | O=C(Nc1ccc2ncc(C3=CCOCC3)cc2n1)NC1CCCC1 [Compound 0205]
57 | > 7.00 | > 7.00 | O=C(Nc1ccc2ncc(-c3cnn(CCCCN4CCOCC4)c3)cc2n1)NC1CCCC1 [Compound 0207]
58 | > 7.00 | > 7.00 | CN(C)CCn1cc(-c2cnc3ccc(NC(=S)NC4CCCC4)nc3c2)cn1 [Compound 0209]
59 | > 7.00 | 6.00 to 7.00 | O=C(Nc1ccc2ncc(-c3cnn(C4CCNCC4)c3)cc2n1)NC1CCCC1 [Compound 0214]
60 | > 7.00 | > 7.00 | Cn1cc(-c2cnc3ccc(NC(=O)NC4CCCC4)nc3c2)c(CO)n1 [Compound 0216]
61 | > 7.00 | > 7.00 | CS(=O)(=O)C1CCN(CCn2cc(-c3cnc4ccc(NC(=O)NC5CCCC5)nc4c3)cn2)CC1 [Compound 0218]
62 | > 7.00 | > 7.00 | S=C(Nc1ccc2ncc(-c3cnn(CCN4CCNCC4)c3)cc2n1)NC1CCCC1 [Compound 0222]
63 | > 7.00 | > 7.00 | Cn1cc(-c2cnc3ccc(NC(=O)NC4CCCC4)nc3c2Cl)cn1 [Compound 0226]
